This is an account of results in patent US20030135173A1 (priority 2001, published 2003).

The test system of one test is S. aureus (MN8). Kind of test: microbe, parasite or virus in culture. It counts as cell-based. The conditions noted are these: Staphylococcus aureus; for inhibition at 0.5 %: 0.5% test compound; for inhibition at 0.2 %: 0.2% test compound.
Test [1] has as its system S. aureus FRI-1187. In kind it is cell-based, Staphylococcus aureus.
The subject of a further test is S. aureus FRI-1169. It counts as cell-based, Staphylococcus aureus.
Test [2] has as its system S. aureus FRI-1187. In kind it is cell-based, Staphylococcus aureus. The source holds these as a separate data set.
The subject of the next test is S. aureus strain RN 6390. It counts as cell-based, Staphylococcus aureus.
The mark [3] stands for this setting: read-out: Reduction of Toxin %, Table 2.
[4] abbreviates: read-out: Reduction of Toxin %, Table 3.
Where [5] appears, read: read-out: Reduction of Toxin %, Table 4.

Where two headings read alike, the source gives them in different places.

On to `OCCc1ccccc1` [Phenylethyl alcohol], for which the inhibition at 0.5 % was 97% with S. aureus (MN8) (setting [3]), 98% with S. aureus (MN8) (setting [4]) and 98% with S. aureus (MN8) (setting [5]). Also, the “effect on the growth of S. aureus cells” value is on record as “minimal, if any, effect” in the test with S. aureus FRI-1187 [1] and “minimal, if any, effect” with S. aureus FRI-1169. Also, the “amount of exotoxin production” value in the test on S. aureus FRI-1187 [2] is “significantly reduced”. Further, the “production of the alpha toxin” value in the test on S. aureus strain RN 6390 is reported as “significantly reduced”.

Turning to `CC(=O)Nc1ccc(O)cc1` [4-Acetamidophenol], the inhibition at 0.5 % with S. aureus (MN8) (setting [5]) was 79%.

As to `CC(=O)N[C@@H](Cc1ccc(O)cc1)C(=O)O` [Acetyl tyrosine], in the test with S. aureus (MN8) (setting [4]), the inhibition at 0.5 % came out at 69%.

As for `O=C(O)/C=C/c1ccccc1` [Trans-cinnamic acid], the inhibition at 0.5 % in the test with S. aureus (MN8) (setting [4]) was determined as 82%.

For `O=C(O)c1cc(O)c(O)c(O)c1` [Gallic acid], the inhibition at 0.5 % in the test with S. aureus (MN8) (setting [4]) turned out to be 95%.

As for `COC(=O)c1ccc(O)cc1` [p-hydroxybenzoic acid, methyl ester], the inhibition at 0.2 % in the test on S. aureus (MN8) (setting [3]) is 82%. Further, in the test with S. aureus strain RN 6390, the “production of the alpha toxin” value is reported as “significantly reduced”.

For `O=C(O)c1ccccc1O` [2-hydroxybenzoic acid], in the test with S. aureus (MN8) (setting [3]), the inhibition at 0.2 % is 93%.

In the case of `Nc1ccc(C(=O)O)cc1` [p-aminobenzoic acid], the inhibition at 0.2 % in the test on S. aureus (MN8) (setting [3]) stood at 89%.
